Experimental data reported in ChEMBL document CHEMBL1130519, “BN 80245: An E-ring modified camptothecin with potent antiproliferative and topoisomerase I inhibitory activities” (Bioorg Med Chem Lett, 1997).

These compounds were tested on L1210 (assay: Compound was evaluated for cytotoxic activity on L1210 murine leukemia cells). Details: Mus musculus.
Assay type: functional, cell-based

Compared with `CCC1(O)CC(=O)OCc2c1cc1n(c2=O)Cc2cc3ccccc3nc2-1` (stereo not drawn), `CC[C@@]1(O)C(=O)OCc2c1cc1n(c2=O)Cc2cc3ccccc3nc2-1` [CAMPTOTHECIN] is 7.8-fold higher in IC50: 16.2 nM for the first, 126 nM for the second. The first is the more potent here.

In the case of `CC[C@@]1(O)C(=O)OCc2c1cc1n(c2=O)Cc2cc3c(CN(C)C)c(O)ccc3nc2-1` [TOPOTECAN], the IC50 is reported as 601 nM.
